Test results taken from patent US8858939B2, “Ectopic pregnancy treatment” (Monash University, priority 2009, dated 2014).
Entries after “also recorded” stand apart in the source; their conditions may differ.

Experiments:
IKB-α = assay: Bio-Plex phosphoprotein assay in JEG3 cells, IKB-α; type: cell-based, human; conditions: FIG. 12D
Procedure: (§1) Cell lysates were analyzed for levels of phosphorylated Akt, p-38 MAPK, IκB-α or Erk1/2 using the Bio-Plex Phosphoprotein Assays (Bio-Rad Laboratories).
(§2) To further explore how these drugs may be acting together to enhance placental cell death, the inventors investigated the phosphorylation status of Akt, p38 mitogen-activated protein kinase (p38-MAPK), extracellular signal-regulated kinase 1/2 (ERK1/2) and IKappaB Kinase (IKB) in response to various treatments in JEG3 cells. These are key signaling molecules representing major downstream pathways of EGFR (Dutta PR & Maity A (2007) Cancer Lett 254:165-177).

JEG3 cells = assay: xCELLigence real-time analysis of JEG3 cell growth; type: cell-based, human; conditions: for decrease in JEG3 growth (xCELLigence): FIG. 6B
Procedure: The Real-Time Cell Analyzer (RTCA) SP instrument (Roche Diagnostics GmbH) was placed in a humidified incubator maintained at 37° C. with 5% CO2. Cells were seeded at 625-40,000 cells per well in 96-well plates (E-plate 96, Roche Diagnostics GmbH) in medium containing 1% or 10% serum. Cells were initially monitored once every 2 min for 1 h and then once every hour. After addition of treatment, cells were monitored once every 10 min for 3 h and thereafter once every hour.
[…]. By taking continuous measurements, this assay also tracks cell growth longitudinally. […].

syncytialised BeWo cells = assay: CellTiter-Blue cell viability assay, syncytialised (forskolin-treated) BeWo cells; type: cell-based, human; conditions: for BeWo cell death, single agent: CellTitre Blue, increasing doses, FIGS. 7B, 8B
Procedure: (§3) JEG-3 and BeWo cells were cultured in DMEM/F-12 medium containing L-glutamine (Invitrogen) supplemented with 10% fetal calf serum (ICP Biologicals). For treatments with methotrexate (Sigma) or Gefitinib (LC Laboratories) media was replaced with media containing 1% FCS.
(§4) Viability was analysed using the CellTiter-Blue® Cell Viability Assay (Promega).
(§5) Two different placenta-derived trophoblast-like human choriocarcinoma cell lines as well as isolated human first trimester extravillous trophoblast cells were incubated with methotrexate±gefitinib at various concentrations for 72 hours. […] The viability of the JEG-3, BeWo and primary first trimester extravillous trophoblast cells after treatment with methotrexate and gefitinib was assessed by the CellTiter-Blue® Cell Viability Assay.
(§6) JEG-3, BeWo and primary first trimester trophoblast cells were seeded at 5000 cells per well in 96-well plates in DMEM/F-12 culture medium containing 1% foetal bovine serum and 1% penicillin/streptomycin and incubated at 37° C. in a humidified atmosphere of 5% CO2. Approximately 40 hours after seeding, drugs were added to the cells in DMEM/F-12 containing 1% foetal bovine serum. A dose of 100 μM of methotrexate (JEG-3 and primary first trimester trophoblast cells) and 200 μM of methotrexate (syncytialised BeWo cells) was used because this dose decreased cell viability by approximately 50%, as observed in initial dose-response experiments. Cells treated with vehicle (DMSO) served as control cells. In all figures, data are expressed as means±SEM. One-way ANOVA and Student's t test were used to compare means between experimental groups. Statistical significance was assumed at P values<0.05. All experiments have been repeated at least twice.
The effect of combined addition of methotrexate and gefitinib on cell viability of syncytialised BeWo cells is shown in FIG. 3. […] Methotrexate and gefitinib were administered to syncytialised (forskolin-treated) BeWo cells and cell viability determined after 72 hours by CellTiter-Blue assay.

[1] = tested on: subcutaneous JEG3 xenografts; assay: Subcutaneous JEG-3 xenograft model in SCID mice; type: in vivo; conditions: i.p.; for xenograft tumour volume at the doses chosen for combination: MTX 0.04 mg/dose, gefitinib 0.5 mg/dose; for xenograft tumour volume, single agent at different doses: days 7 and 13 (FIG. 11: days 7, 10 and 13), FIGS. 10A, 10B, 11
Procedure: 5- to 6-week-old female SCID mice (C.B-17-Igh-1^b-Prkdc^scid; Animal Resources Centre, Perth, Australia) were inoculated with JEG-3 cells (10^6 in 100 μL PBS) subcutaneously. Mice were treated starting at day 7 after JEG-3 injection with gefitinib (0.5-2 mg per dose in 50 μL DMSO), methotrexate (0.04-0.4 mg per dose in 100 μL buffer) or respective vehicle (DMSO/buffer) per intraperitoneal injection (i.p.). Xenograft volume in cubic millimeters was determined using the formula (length×width^2)/2, where length was the longest axis and width was the measurement at right angles to the length. The mice were sacrificed after 19 days, at which time we excised the xenografts, weighed and measured them, and collected blood by cardiac puncture. hCG was quantified in mouse serum using the Elegance hCG ELISA assay (Bioclone). The animal study was reviewed and approved by the Monash University Animal Welfare Committee.
A subcutaneous JEG-3 xenograft model as established in SCID mice where 1×10^6 JEG-3 cells were injected into the flanks of mice.
Once palpable, xenograft growth was monitored by measuring tumour length and width every 3 days using digital callipers. Tumour volume in mm^3 was determined using the formula […], where length was the longest axis and width being the measurement at right angles to the length. Data are expressed as average tumour volume±SEM for each treatment group.
Mean tumour volume was monitored by digital calliper measurements every 3 days. Tumour volume was determined as described above.

p38 MAPK = assay: Bio-Plex phosphoprotein assay in JEG3 cells, p38 MAPK; type: cell-based, human; conditions: FIG. 12B
Procedure: as §1, §2

JEG-3 cells = assay: CellTiter-Blue cell viability assay, JEG-3 cells; type: cell-based, human; conditions: for JEG3 cell death, single agent: CellTitre Blue, increasing doses, 48 and 72 hours, FIGS. 7A, 8A
Procedure: as §3, §4, §5, §6

ERK1/2 = assay: Bio-Plex phosphoprotein assay in JEG3 cells, ERK1/2; type: cell-based, human; conditions: FIG. 12C
Procedure: as §1, §2

Akt = assay: Bio-Plex phosphoprotein assay in JEG3 cells, Akt; type: cell-based, human; conditions: JEG3 cells treated with EGF, FIG. 12A
Procedure: as §1, §2

developing embryo = conditions: administered for 11 weeks to a person who conceived during a clinical trial; cited from earlier work
[2] = tested on: caspase-cleaved cytokeratin 18; assay: M30 antibody apoptosis assay (FACS) in JEG3 cells; type: cell-based, human; conditions: 72 hours, FIG. 13C
Procedure: Cell suspensions were fixed in ice-cold methanol overnight at −20° C., washed in PBS and stained with M30 CytoDeath mouse monoclonal antibody (Sapphire Biosciences), followed by ALEXA® 488-conjugated anti-mouse antibody (Invitrogen). Samples were analyzed on a BD FACS Canto II analyser (BD Biosciences).
Therefore, the inventors performed FACS sorting using the M30 antibody that detects caspase-cleaved cytokeratin 18, a marker of early apoptosis which persists in cells (Ueno T et al., (2005) Biomed Pharmacother 59 Suppl 2, S359-362). […]. The inventors conclude that combination treatment may increase apoptosis in placental cells.

[3] = tested on: primary first trimester extravillous trophoblast cells; assay: CellTiter-Blue cell viability assay, primary first trimester extravillous trophoblast cells; type: cell-based; conditions: Homo sapiens, 100 μM methotrexate, initial dose-response experiments, read-out: decrease in cell viability
Excerpt: 1st trimester placenta was collected from healthy women undergoing elective termination of pregnancy (amenorrhea: 8-10 weeks). This research protocol, including written consent from patients, was approved by the Southern Health Human Research and Ethics Committee. From the 1st trimester placental tissue, primary cytotrophoblast was isolated as previously described (Cartwright J E et al., (2002) Placenta 23:232-235). The inventors confirmed the purity of primary cytotrophoblast cells by immunocytochemistry for cytokeratin 7 as previously described (Paiva P et al., (2007) Endocrinology 148:5566-5572).
as §4
as §5, with “Assay. […]” for “Assay.”
Importantly, the efficacy of methotrexate±gefitinib was also assessed in primary human extravillous trophoblast cells isolated from first trimester placenta.

EGFR = biological target: T1, EGFR (Homo sapiens, UniProt P00533); assay: Western blot of EGF induced EGFR phosphorylation in JEG3 cells; type: cell-based; conditions: pre-incubation of JEG3 cells, FIG. 5
T1 construct: endogenous in cells; host or cells: JEG3 cells
T1 sequence (P00533 25-1210): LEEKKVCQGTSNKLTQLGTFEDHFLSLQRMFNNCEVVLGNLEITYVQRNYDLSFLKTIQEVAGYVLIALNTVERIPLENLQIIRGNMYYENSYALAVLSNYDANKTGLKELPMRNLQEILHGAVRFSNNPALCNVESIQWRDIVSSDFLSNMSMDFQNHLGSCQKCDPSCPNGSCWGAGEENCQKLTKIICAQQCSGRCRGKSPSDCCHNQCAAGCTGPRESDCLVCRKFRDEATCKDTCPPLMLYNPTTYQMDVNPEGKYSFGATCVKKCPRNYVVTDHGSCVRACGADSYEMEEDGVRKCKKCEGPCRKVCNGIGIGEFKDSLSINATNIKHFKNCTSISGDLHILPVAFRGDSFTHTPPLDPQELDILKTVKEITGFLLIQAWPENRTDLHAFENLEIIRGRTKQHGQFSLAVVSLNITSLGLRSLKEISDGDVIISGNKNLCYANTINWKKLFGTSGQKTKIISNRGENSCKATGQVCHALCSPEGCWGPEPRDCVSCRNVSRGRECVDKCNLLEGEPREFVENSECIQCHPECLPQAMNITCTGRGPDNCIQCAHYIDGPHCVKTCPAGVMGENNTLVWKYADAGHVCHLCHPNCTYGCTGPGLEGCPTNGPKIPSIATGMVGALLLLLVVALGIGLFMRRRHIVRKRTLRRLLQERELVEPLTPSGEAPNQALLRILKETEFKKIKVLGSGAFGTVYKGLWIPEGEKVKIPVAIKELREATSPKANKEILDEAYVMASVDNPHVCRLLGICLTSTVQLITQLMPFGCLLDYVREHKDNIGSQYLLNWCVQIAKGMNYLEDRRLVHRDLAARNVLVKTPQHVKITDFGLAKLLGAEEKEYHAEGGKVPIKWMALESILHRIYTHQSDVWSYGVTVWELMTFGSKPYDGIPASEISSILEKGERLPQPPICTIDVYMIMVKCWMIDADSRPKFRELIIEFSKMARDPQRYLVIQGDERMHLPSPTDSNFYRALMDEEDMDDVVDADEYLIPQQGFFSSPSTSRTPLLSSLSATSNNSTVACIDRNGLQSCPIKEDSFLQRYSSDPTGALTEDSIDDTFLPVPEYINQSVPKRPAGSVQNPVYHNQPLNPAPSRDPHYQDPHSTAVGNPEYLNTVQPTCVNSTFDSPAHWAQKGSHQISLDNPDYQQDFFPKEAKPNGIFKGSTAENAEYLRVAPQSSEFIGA
Procedure: Cells were trypsinised, washed and lysed in RIPA buffer (50 mM Tris, 150 mM NaCl, 1% triton, 0.1% SDS, 1 mM EDTA, 0.1% sodium deoxycholate, protease inhibitor cocktail, sodium vanadate) for 10 min prior to 15 min sonication and centrifugation at 4° C. to remove cellular debris. Lysates were resolved by reducing SDS-PAGE and transferred to PVDF membranes using the iBlot dry transfer system (Invitrogen).

Question: For `COc1cc2ncnc(Nc3ccc(F)c(Cl)c3)c2cc1OCCCN1CCOCC1` [gefitinib, N-(3-chloro-4-fluorophenyl)-7-methoxy-6-(3-morpholinopropoxy)quinazolin-4-amine], which “EGF induced IKB-α phosphorylation” value (IKB-α) is on record?
Answer: potently blocked

Question: And the “decrease in JEG3 growth (xCELLigence)” value (JEG3 cells; gefitinib 8 μM)?
Answer: small and transient

Question: What about the “decrease in JEG3 growth (xCELLigence)” value (JEG3 cells; gefitinib 2 or 4 μM) of the same compound?
Answer: no

Question: And the “BeWo cell death, single agent” value (syncytialised BeWo cells)?
Answer: little or no cell death

Question: And the “xenograft tumour volume at the doses chosen for combination” value [1]?
Answer: some reduction

Question: And the “xenograft tumour volume, single agent at different doses” value [1]?
Answer: potent dose dependent reductions; also recorded: regresses

Question: What about the “EGF induced p38-MAPK phosphorylation” value (p38 MAPK) of the same compound?
Answer: potently blocked

Question: What about the “JEG3 cell death, single agent” value (JEG-3 cells) of the same compound?
Answer: not

Question: And the “JEG3 cell death, single agent” value (JEG-3 cells; listed as Gefitinib)?
Answer: little or no cell death

Question: And the “EGF induced ERK1/2 phosphorylation” value (ERK1/2)?
Answer: potently blocked

Question: What about the Akt phosphorylation (Akt) of the same compound?
Answer: potently blocked

Question: For `CS(=O)(=O)CCNCc1ccc(-c2ccc3ncnc(Nc4ccc(OCc5cccc(F)c5)c(Cl)c4)c3c2)o1` [lapatinib], which “effects on the developing embryo” value (developing embryo) is on record?
Answer: no ill effects on the developing embryo

Question: With `CN(Cc1cnc2nc(N)nc(N)c2n1)c1ccc(C(=O)N[C@@H](CCC(=O)O)C(=O)O)cc1` [methotrexate] as the compound, how does the “M30 staining (caspase-cleaved cytokeratin 18, early apoptosis)” value [2] read?
Answer: increased expression

Question: What about the “JEG3 cell growth (xCELLigence)” value (JEG3 cells; FIG. 6, combination: gefitinib doses added to a fixed dose of MTX) of the same compound?
Answer: decreased JEG3 cell growth in a dose dependent manner

Question: What about the “BeWo cell death, single agent” value (syncytialised BeWo cells) of the same compound?
Answer: in a dose dependent manner

Question: And the cytotoxicity at 200 µM (syncytialised BeWo cells; Homo sapiens, 200 μM methotrexate, syncytialised BeWo cells, initial dose-response experiments, read-out: decrease in cell viability)?
Answer: ~50%

Question: And the “xenograft tumour volume at the doses chosen for combination” value [1]?
Answer: some reduction

Question: And the “xenograft tumour volume, single agent at different doses” value ([1]; listed as MTX)?
Answer: decrease in xenograft tumour volume was observed with increasing doses

Question: And the “xenograft tumour volume, single agent at different doses” value ([1]; listed as Methotrexate (MTX))?
Answer: regresses

Question: And the “JEG3 cell death, single agent” value (JEG-3 cells; listed as MTX)?
Answer: in a dose dependent manner

Question: What about the “JEG3 cell death, single agent” value (JEG-3 cells; listed as methotrexate (MTX)) of the same compound?
Answer: kills JEG3 cells in a dose response manner

Question: What about the cytotoxicity at 100 µM (JEG-3 cells; Homo sapiens, 100 μM methotrexate, JEG-3 cells, initial dose-response experiments, read-out: decrease in cell viability) of the same compound?
Answer: ~50%

Question: What about the cytotoxicity at 100 µM [3] of the same compound?
Answer: ~50%

Question: What about the Akt phosphorylation (Akt) of the same compound?
Answer: significant increase

Question: And the “EGF induced EGFR phosphorylation” value (EGFR)?
Answer: partially inhibited
